Test results: US11053204B2, “Pyrimidinyloxy benzene derivatives as herbicides” (FMC Corporation, priority 2015, dated 2021)

Tests used:
Format in all cases: in vivo
[1] = tested on: Italian ryegrass (Lolium multiflorum); assay: Test A postemergence, visual injury rating; conditions: 0 to 100 scale, 0 is no effect, 100 is complete control, approximately 10 days
Procedure, shortened: (§1)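 Greenhouse pot test, loam/sand soil. Formulation: non-phytotoxic solvent mix plus surfactant. Pre: directed spray onto soil after sowing. Post: plants at 1–2 leaf, 2–10 cm. Rated visually vs untreated controls at ~10 d, 0 (no effect) to 100 (complete control).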

[2] = tested on: barnyardgrass (Echinochloa crus-galli); assay: Test A postemergence, visual injury rating; conditions: 0 is no effect, 100 is complete control
Procedure, shortened: as §1

[3] = tested on: blackgrass (Alopecurus myosuroides); assay: Test A postemergence, visual injury rating; conditions: 0 is no effect, 100 is complete control
Procedure, shortened: as §1

[4] = tested on: corn (Zea mays); assay: Test A postemergence, visual injury rating; conditions: 0 is no effect, 100 is complete control
Procedure, shortened: as §1

[5] = tested on: galium (catchweed bedstraw, Galium aparine); assay: Test A postemergence, visual injury rating; conditions: 0 is no effect, 100 is complete control
Procedure, shortened: as §1

[6] = tested on: giant foxtail (Setaria faberii); assay: Test A postemergence, visual injury rating; conditions: 0 is no effect, 100 is complete control
Procedure, shortened: as §1

[7] = tested on: kochia (Kochia scoparia); assay: Test A postemergence, visual injury rating; conditions: 0 to 100 scale, 0 is no effect, 100 is complete control, approximately 10 days
Procedure, shortened: as §1

[8] = tested on: pigweed (Amaranthus retroflexus); assay: Test A postemergence, visual injury rating; conditions: 0 to 100 scale, 0 is no effect, 100 is complete control, approximately 10 days
Procedure, shortened: as §1

[9] = tested on: ragweed (common ragweed, Ambrosia elatior); assay: Test A postemergence, visual injury rating; conditions: 0 to 100 scale, 0 is no effect, 100 is complete control, approximately 10 days
Procedure, shortened: as §1

[10] = tested on: wheat (Triticum aestivum); assay: Test A postemergence, visual injury rating; conditions: 0 to 100 scale, 0 is no effect, 100 is complete control, approximately 10 days
Procedure, shortened: as §1

[11] = tested on: lambsquarters (Chenopodium album); assay: Test C preemergence, plant response rating; conditions: Preemergence
Procedure, shortened: (§2)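 Visual injury score, 0 = no effect, 100 = complete control, assigned against untreated controls after 13 to 15 d in the greenhouse. Compounds were applied in a surfactant-containing non-phytotoxic solvent mix, preemergence to seeded loam/sand or silt loam soil, or postemergence to 1- to 4-leaf plants (2 to 18 cm).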

[12] = tested on: morningglory (Ipomoea coccinea); assay: Test C preemergence, plant response rating; conditions: Preemergence
Procedure, shortened: as §2

[13] = tested on: nutsedge, yellow (yellow nutsedge, Cyperus esculentus); assay: Test C preemergence, plant response rating; conditions: Preemergence
Procedure, shortened: as §2

[14] = tested on: velvetleaf (Abutilon theophrasti); assay: Test C preemergence, plant response rating; conditions: Preemergence
Procedure, shortened: as §2

[15] = tested on: waterhemp (common waterhemp, Amaranthus rudis); assay: Test C preemergence, plant response rating; conditions: Preemergence
Procedure, shortened: as §2

[16] = tested on: wheat (winter wheat, Triticum aestivum); assay: Test C preemergence, plant response rating; conditions: Preemergence
Procedure, shortened: as §2

[17] = tested on: crabgrass, large (large crabgrass, Digitaria sanguinalis); assay: Test C postemergence, plant response rating; conditions: for Crabgrass, Large plant response rating: scale 0 to 100 (0 no effect, 100 complete control)
From the text: (§3) Seeds of plant species selected from blackgrass (Alopecurus myosuroides), ryegrass, Italian (Italian ryegrass, Lolium multiflorum), wheat (winter wheat, Triticum aestivum), galium (catchweed bedstraw, Galium aparine), corn (Zea mays), crabgrass, large (large crabgrass, Digitaria sanguinalis), foxtail, giant (giant foxtail, Setaria faberii), johnsongrass (Sorghum halepense), lambsquarters (Chenopodium album), morningglory (Ipomoea coccinea), nutsedge, yellow (yellow nutsedge, Cyperus esculentus), pigweed (Amaranthus retroflexus), ragweed (common ragweed, Ambrosia elatior), soybean (Glycine max), barnyardgrass (Echinochloa crus-galli), oilseed rape (Brassica napus), pigweed, palmer (palmer pigweed, Amaranthus palmeri), waterhemp (common waterhemp, Amaranthus rudis), velvetleaf (Abutilon theophrasti), kochia (Kochia scoparia), surinam grass (Brachiaria decumbens), nightshade (eastern black nightshade, Solanum ptycanthum), wild poinsettia (Euphorbia heterophylla), windgrass (Apera spica-venti), and oat, wild (wild oat Avena fatua), were planted into a blend of loam soil and sand or a silt loam soil and treated preemergence with test chemicals formulated in a non-phytotoxic solvent mixture which included a surfactant.
(§4) At the same time, plants selected from these crop and weed species and also chickweed (common chickweed, Stellaria media), buckwheat, wild (wild buckwheat, Polygonum convolvulus), wild mustard (Sinapis arvensis), field poppy (Papaver rhoeas), field violet (Viola arvensis), geranium, cutleaf (cutleaf geranium, Geranium dissectum), Canada thistle (Cirsium arvense), and speedwell (bird's-eye speedwell, Veronica persica), were planted in pots containing Sunshine Redi-Earth® planting medium comprising spaghnum peat moss, vermiculite, starter nutrients and dolomitic limestone and treated with postemergence applications of test chemicals formulated in the same manner. Plants ranged in height from 2 to 18 cm (1- to 4-leaf stage) for postemergence treatments. Treated plants and controls were maintained in a greenhouse for 13 to 15 d, after which time all species were compared to controls and visually evaluated. Plant response ratings, summarized in Table C, are based on a scale of 0 to 100 where 0 is no effect and 100 is complete control. A dash (-) response means no test result.

[18] = tested on: ryegrass, Italian (Italian ryegrass, Lolium multiflorum); assay: Test C postemergence, plant response rating; conditions: for Ryegrass, Italian plant response rating: scale 0 to 100 (0 no effect, 100 complete control)
From the text: as §3, §4

[19] = 31 g ai/ha, 0 to 100 scale, approximately 10 days

N#Cc1cccc(Oc2ncc(Cl)cn2)c1COCCC(F)(F)F [Compound 80]
Ryegrass, Italian plant response rating ([1]; 31 g ai/ha): 0
Ryegrass, Italian plant response rating ([1]; 125 g ai/ha): 50
Barnyardgrass plant response rating [2, 19]: 30
Barnyardgrass plant response rating (0 to 100 scale) ([2]; 125 g ai/ha): 90
Blackgrass plant response rating [3, 19]: 30
Blackgrass plant response rating (0 to 100 scale) ([3]; 125 g ai/ha): 90
Corn plant response rating [4, 19]: 10
Corn plant response rating (0 to 100 scale) ([4]; 125 g ai/ha): 60
Galium plant response rating [5, 19]: 60
Galium plant response rating (0 to 100 scale) ([5]; 125 g ai/ha): 90
Foxtail, Giant plant response rating [6, 19]: 30
Foxtail, Giant plant response rating (0 to 100 scale) ([6]; 125 g ai/ha): 90
Kochia plant response rating ([7]; 31 g ai/ha): 50
Kochia plant response rating ([7]; 125 g ai/ha): 70
Pigweed plant response rating ([8]; 31 g ai/ha): 80
Pigweed plant response rating ([8]; 125 g ai/ha): 100
Ragweed plant response rating ([9]; 31 g ai/ha): 10
Ragweed plant response rating ([9]; 125 g ai/ha): 30
Wheat plant response rating ([10]; 31 g ai/ha): 0
Wheat plant response rating ([10]; 125 g ai/ha): 40
Plant response rating, Lambsquarters ([11]; 125 g ai/ha, scale of 0 to 100): 98
Plant response rating, Lambsquarters ([11]; 31 g ai/ha, scale 0 to 100): 70
Plant response rating, Lambsquarters ([11]; 62 g ai/ha, scale 0 to 100): 95
Plant response rating, Morningglory ([12]; 125 g ai/ha, scale of 0 to 100): 75
Plant response rating, Morningglory ([12]; 31 g ai/ha, scale 0 to 100): 20
Plant response rating, Morningglory ([12]; 62 g ai/ha, scale 0 to 100): 40
Plant response rating, Nutsedge, Yellow ([13]; 125 g ai/ha, scale of 0 to 100): 35
Plant response rating, Nutsedge, Yellow ([13]; 31 g ai/ha, scale 0 to 100): 0
Plant response rating, Nutsedge, Yellow ([13]; 62 g ai/ha, scale 0 to 100): 0
Plant response rating, Velvetleaf ([14]; 125 g ai/ha, scale of 0 to 100): 100
Plant response rating, Velvetleaf ([14]; 31 g ai/ha, scale 0 to 100): 55
Plant response rating, Velvetleaf ([14]; 62 g ai/ha, scale 0 to 100): 70
Plant response rating, Waterhemp ([15]; 125 g ai/ha, scale of 0 to 100): 100
Plant response rating, Waterhemp ([15]; 31 g ai/ha, scale 0 to 100): 100
Plant response rating, Waterhemp ([15]; 62 g ai/ha, scale 0 to 100): 100
Plant response rating, Wheat ([16]; 125 g ai/ha, scale of 0 to 100): 15
Plant response rating, Wheat ([16]; 31 g ai/ha, scale 0 to 100): 0
Plant response rating, Wheat ([16]; 62 g ai/ha, scale 0 to 100): 0
Plant response rating, Crabgrass, Large ([17]; 16 g ai/ha, scale of 0 to 100): 10
Plant response rating, Crabgrass, Large ([17]; 31 g ai/ha, scale 0 to 100): 15
Crabgrass, Large plant response rating ([17]; 62 g ai/ha): 10
Crabgrass, Large plant response rating ([17]; 125 g ai/ha): 30
Plant response rating, Ryegrass, Italian ([18]; 16 g ai/ha, scale of 0 to 100): 0
Plant response rating, Ryegrass, Italian ([18]; 31 g ai/ha, scale 0 to 100): 0
Ryegrass, Italian plant response rating ([18]; 62 g ai/ha): 5
Ryegrass, Italian plant response rating ([18]; 125 g ai/ha): 5
